Measurements: patent US11234967B2, “Use of 3-[5-amino-4-(3-cyanobenzoyl)-pyrazol-1-yl]-n-cyclopropyl-4-methylbenzamide in the prevention or reduction of acute exacerbations of chronic obstructive pulmonary disease” (MEREO BIOPHARMA 1 LIMITED, priority 2017, dated 2022)

How the values were obtained:
[1] = test system: patients with AECOPD; test: AETHER Phase 2 trial: change in FEV1 from baseline to Day 7; assay type: in vivo, human; conditions: for FEV1 change from baseline to Day 7, sub-group with blood eosinophils <2%: on top of standard of care, compared to other sub-groups and placebo, FIGS. 10, 11
Text: (§1) A Phase 2 trial (referred to as AETHER) was a double-blind, randomised, placebo-controlled clinical study investigating the use of BCT-197, on top of Standard of Care, for the treatment of patients with AECOPD. Standard of Care included the addition of steroids and/or antibiotics to a patient's chronic COPD medication and symptomatic bronchodilators. Following baseline assessment, 282 eligible patients were randomised to receive either two different dose regimens of BCT-197 or placebo (three doses over five days). The primary endpoint was a comparison of change in forced expiratory volume in 1 second (FEV1) from baseline to day 7 within each arm of the study.
The trial assessed adult patients≥40 years with an acute exacerbation of COPD (as defined by increase in symptoms of cough, and/or sputum and/or breathlessness that required addition of antibiotics and or systemic corticosteroids to their regular treatment).
Patients received one of two oral dosing regimens of 3-[5-amino-4-(3-cyanobenzoyl)-pyrazol-1-yl]-N-cyclopropyl-4-methylbenzamide or matching oral placebo administered according to the dosing schedules shown in Table 2.
Inclusion criteria for the study population were: • Males/females≥40 • On regular treatment for COPD (categories C and D by 2015 GOLD guidelines) • Presence of an active exacerbation of the ongoing COPD requiring hospitalisation for treatment: • At least one moderate or severe COPD exacerbation in the preceding 12 months • Smoking history of at least 10 pack years • FEV1<65% of the predicted normal value […]
Efficacy of treatment was measured by the primary endpoint of change in FEV1 from baseline (before treatment) to Day 7. Patients with COPD and low eosinophils (determined by blood percentages or absolute counts) are considered to be poorly responsive to treatment of acute exacerbations using known treatments.

[2] = test system: high sensitivity C-Reactive Protein (hsCRP); test: AETHER Phase 2 trial: hsCRP blood concentration; assay type: in vivo, human
Text: as §1, with “either one of” for “either”, “days).” for “days). The primary endpoint was a comparison of change in forced expiratory volume in 1 second (FEV1) from baseline to day 7 within each arm of the study.”
Inflammatory biomarkers are related to disease outcomes (Barnes and Celli, Eur Respir J, 2009, 33, pp 1165-1185; Bourdin et al., Eur Respir Rev, 2009, 18, pp 198-212) and are central to the proposed mechanism of action for BCT197. A further exploratory outcome was included out to 6 months, namely the inflammatory biomarker high sensitivity C-Reactive Protein (hsCRP) measured in patients. […] This is supportive that treatment in accordance with the invention leads to a reduction in re-hospitalisations and non-hospitalised exacerbations over this period through long term reduction in inflammation.
After the acute treatment period, the hsCRP remains lower in those who had received BCT197 compared to placebo to Day 180 (p value<0.05) without additional dosing of BCT197, supporting a prolonged pharmacology effect on inflammation by BCT197.
(§2) A further exploratory outcome included over the treatment period to Day 5 and BCT197 systemic exposure (to Day 14) were the inflammatory biomarkers high sensitivity C-Reactive Protein (hsCRP) and fibrinogen measured in patient blood. […] This was maximal at Day 7 (FIGS. 12 and 13) coincident with the highest improvement in FEV1 (FIG. 11) in response to BCT197 in the same patient population with <2% eosinophils.

[3] = test system: acute exacerbations of COPD; test: AETHER Phase 2 trial: occurrence of new acute exacerbations of COPD / re-hospitalisation out to 6 months; assay type: in vivo, human
Text: A Phase 2 trial (referred to as […]) was a double-blind, randomised, placebo-controlled clinical study investigating the use of BCT-197, on top of Standard of Care, for the treatment of patients with AECOPD. Standard of Care included the addition of steroids and/or antibiotics to a patient's chronic COPD medication and symptomatic bronchodilators. Following baseline assessment, 282 eligible patients were randomised to receive either one of two different dose regimens of BCT-197 or placebo (three doses over five days). The trial assessed adult patients ≥40 years with an acute exacerbation of COPD (as defined by increase in symptoms of cough, and/or sputum and/or breathlessness that required addition of antibiotics and or systemic corticosteroids to their regular treatment). The dosing regimen of 3-[5-amino-4-(3-cyanobenzoyl)-pyrazol-1-yl]-N-cyclopropyl-4-methylbenzamide or matching oral placebo administered are shown in Table 1. [table] BCT197 or placebo was added on top of the standard of care for the exacerbation. Exploratory long term outcomes after the acute treatment were included out to 6 months. […] Inclusion criteria for the study population were: • Males/females≥40 • On regular treatment for COPD (categories C and D by 2015 GOLD guidelines) • Presence of an active exacerbation of the ongoing COPD requiring hospitalisation for treatment: • At least one moderate or severe COPD exacerbation in the preceding 12 months • Smoking history of at least 10 pack years • FEV1<65% of the predicted normal value Exclusion criteria for the study population were: • Current diagnosis of asthma • Treatment with systemic corticosteroids or antibiotics in the prior 4 weeks. • Requiring intensive care unit treatment • Clinically significant cardiovascular condition of clinically significant ECG abnormality • Concurrent pneumonia, pulmonary embolus or pneumothorax

[4] = test system: lymphocytes and neutrophils; test: AETHER Phase 2 trial: % lymphocytes and neutrophils in blood; assay type: in vivo, human
Text: as §1, with “either one of” for “either”, “days).” for “days). The primary endpoint was a comparison of change in forced expiratory volume in 1 second (FEV1) from baseline to day 7 within each arm of the study.”
Systemic markers of adaptive and innate immunity are predictive of disease progression in COPD. […] Consequently, the effect of BCT197 to rebalance these biomarkers to a healthier phenotype, including beyond the period of systemic drug exposure, supports the potential benefit of the dosing regimens of the present invention.

[5] = test system: fibrinogen; test: AETHER Phase 2 trial: fibrinogen blood concentration; assay type: in vivo, human; conditions: high and low dose over 5 days; to Day 14; including <2% eosinophils; maximal at Day 7; FIG. 13
Text: as §1, §2

[6] = test system: AECOPD; conditions: single oral dose; cited from earlier work

SMILES: Cc1ccc(C(=O)NC2CC2)cc1-n1ncc(C(=O)c2cccc(C#N)c2)c1N [BCT197, 3-[5-amino-4-(3-cyanobenzoyl)-pyrazol-1-yl]-N-cyclopropyl-4-methylbenzamide]
- FEV1: relative difference to standard of care, >2% eosinophil sub-population ([1]; FIG. 10 right hand side): much less than in the low eosinophil group
- FEV1 change from baseline to Day 7, sub-group with blood eosinophils <2% [1]: substantial and consistent improvement in FEV1
- FEV1 change from baseline to Day 7, sub-group with blood eosinophils <2% ([1]; listed as compound A): significant improvement
- hsCRP for the subsequent 6 months versus placebo ([2]; both high and low dose over 5 days, both high and low eosinophil sub group, FIGS. 4 and 5): sustained and durable reduction in hsCRP
- hsCRP from baseline versus placebo ([2]; high and low dose over 5 days, to Day 14, including <2% eosinophils, maximal at Day 7, FIG. 12): dose-dependent reduction
- decrease in hsCRP to day 7 during acute treatment compared to placebo ([2]; high dose, combined Eos>2% and <2%, p<0.05 at Day 3, 7 and 10, FIG. 6): significantly greater
- hsCRP after the acute treatment period compared to placebo ([2]; high dose, to Day 180 without additional dosing, p value<0.05, FIG. 6): remains lower
- re-hospitalisation for COPD ([3]; both high and low dose over 5 days, subsequent 6 months, high eosinophil sub group (Eos>2%), vs placebo, FIG. 3): able to reduce re-hospitalisation for COPD
- reduction of occurrence of new exacerbations that require hospitalisation ([3]; high dose (75/40/40 mg, days 1, 3, 5) on top of standard of care, subsequent 6 months, vs placebo, FIG. 1): 40-60%
- period of greatest effect on new exacerbations that require hospitalisation ([3]; high dose, based on numerical difference to placebo and statistical significance): between 3 and 4 months
- recurrent exacerbations that were not hospitalised ([3]; short course of high dose, FIG. 2): reductions
- change from baseline in % neutrophils during acute treatment ([4]; high and low dose vs placebo, greater than placebo with dose-dependent effect, FIG. 8): rapid decrease in % neutrophils
- change from baseline in % lymphocytes over the acute treatment period ([4]; high and low dose vs placebo, to Day 14, FIG. 7): dose-dependent increase in lymphocytes
- reduction in % neutrophils compared to placebo to Day 56 ([4]; without additional dosing, FIG. 9): remains greater
- fibrinogen from baseline versus placebo [5]: dose-dependent reduction
- recovery of AECOPD to the stable disease state [6]: accelerates the recovery to the stable disease state
